This note sets out measurements from US7795229B2, “Serum cholesterol lowering agent or preventative or therapeutic agent for atherosclerosis” (Kotobuki Pharmaceutical Co., Ltd., priority 2003, dated 2010).

Broadly, the melting point is the temperature, or range, at which the solid turns liquid.

Compound `O=C1[C@H](CC[C@H](O)c2ccc(F)cc2)[C@@H](c2ccc(/C=C/[C@@H]3O[C@H](CO)[C@@H](O)[C@H](O)[C@H]3O)cc2)N1c1ccc(F)cc1` [Compound 45] had a melting point of 84 to 86 °C.
The figure for `Cc1ccc(N2C(=O)[C@H](CCC(=O)c3ccc(F)cc3)[C@H]2c2ccc(C[C@@H]3O[C@H](CO)[C@@H](O)[C@H](O)[C@H]3O)cc2)cc1` [Compound 28] is 86 to 88 °C; for `CCOC(=O)C(C)(C)Oc1ccc(N2C(=O)[C@H](CCCc3ccc(C)cc3)[C@H]2c2ccc(C[C@@H]3O[C@H](CO)[C@@H](O)[C@H](O)[C@H]3O)cc2)cc1` [Compound 20] it is 76 to 78 °C.
In turn, `CC(=O)OC[C@H]1O[C@@H](Cc2ccc([C@@H]3[C@@H](CCCc4ccc(F)cc4)C(=O)N3c3ccc(F)cc3)cc2)[C@H](OC(C)=O)[C@@H](OC(C)=O)[C@@H]1OC(C)=O` [Compound 3] showed a melting point of 56 to 58 °C.
Compound `O=C1[C@H](CCOc2ccc(F)cc2)[C@@H](c2ccc(OC[C@@H]3O[C@H](CO)[C@@H](O)[C@H](O)[C@H]3O)cc2)N1c1ccc(F)cc1` [Compound 15] had a melting point of 64 to 65 °C.
For `CC(=O)OC[C@H]1O[C@@H](Cc2ccc([C@@H]3[C@@H](CCOc4ccc(F)cc4)C(=O)N3c3ccc(F)cc3)cc2)[C@H](OC(C)=O)[C@@H](OC(C)=O)[C@@H]1OC(C)=O` [Compound 13] the value was 64 to 66 °C; for `O=C(O)[C@H]1O[C@@H](Cc2ccc([C@@H]3[C@@H](CCCc4ccc(F)cc4)C(=O)N3c3ccc(F)cc3)cc2)[C@H](O)[C@@H](O)[C@@H]1O` [Compound 17], 105 to 106 °C; for `O=C1[C@H](CC[C@H](O)c2ccc(F)cc2)[C@@H](c2ccc(C[C@@H]3O[C@H](CO)[C@@H](O)[C@H](O)[C@H]3O)cc2)N1c1ccc(F)cc1` [Compound 22], 115 to 117 °C.
`O=C1[C@H](CC[C@H](O)c2ccc(F)cc2)[C@@H](c2ccc(/C=C/CCC[C@@H]3O[C@H](CO)[C@@H](O)[C@H](O)[C@H]3O)cc2)N1c1ccc(F)cc1` [Compound 54]: the melting point lay within 69 to 71 °C.
Consider `Cc1ccc(N2C(=O)[C@H](CCCc3ccc(F)cc3)[C@H]2c2ccc(C[C@@H]3O[C@H](CO)[C@@H](O)[C@H](O)[C@H]3O)cc2)cc1` [Compound 7], for which the melting point lay in the range of 80 to 82 °C.
Take `O=C1[C@H](CC[C@H](O)c2ccc(F)cc2)[C@@H](c2ccc(/C=C/COC[C@@H]3O[C@H](CO)[C@@H](O)[C@H](O)[C@H]3O)cc2)N1c1ccc(F)cc1` [Compound 51]: the melting point lay within 65 to 67 °C.
`O=C1[C@H](CCCc2ccc(F)cc2)[C@H](c2ccc(C[C@@H]3O[C@H](CO)[C@@H](O)[C@H](O)[C@H]3O)cc2)N1c1ccc(F)cc1` [Compound 40] gave a melting point of 78 to 80 °C.
For `O=C1[C@H](CCCc2ccc(F)cc2)[C@@H](c2ccc(C3O[C@H](CO)[C@@H](O)[C@H](O)[C@H]3O)cc2)N1c1ccc(F)cc1` (some centres unmarked) [Compound 1], the melting point lay within 89 to 90 °C.
For `O=C1[C@H](CCOc2ccc(F)cc2)[C@@H](c2ccc(C[C@@H]3O[C@H](CO)[C@@H](O)[C@H](O)[C@H]3O)cc2)N1c1ccc(F)cc1` [Compound 12] the value was 65 to 67 °C; for `O=C(O)[C@H]1O[C@@H](CCc2ccc([C@@H]3[C@@H](CC[C@H](O)c4ccc(F)cc4)C(=O)N3c3ccccc3)cc2)[C@H](O)[C@@H](O)[C@@H]1O` [Compound 58], 110 to 112 °C.
Consider `COc1ccc(N2C(=O)[C@H](CCCc3ccc(F)cc3)[C@H]2c2ccc(C[C@@H]3O[C@H](COC(C)=O)[C@@H](OC(C)=O)[C@H](OC(C)=O)[C@H]3OC(C)=O)cc2)cc1` [Compound 6], for which the melting point was 60 to 62 °C.
As to `O=C1[C@H](CCCc2ccc(F)cc2)[C@@H](c2ccc(C[C@@H]3O[C@H](CO)[C@@H](O)[C@H](O)[C@H]3O)cc2)N1c1ccc(F)cc1` [Compound 25], the melting point lay in the range of 67 to 69 °C.
`CC(C)(Oc1ccc(N2C(=O)[C@H](CCCc3ccc(F)cc3)[C@H]2c2ccc(C[C@@H]3O[C@H](CO)[C@@H](O)[C@H](O)[C@H]3O)cc2)cc1)C(=O)O` [Compound 19] returned a melting point of 170 to 172 °C.
For `O=C1[C@H](CCCc2ccc(F)cc2)[C@@H](c2ccc(OC[C@@H]3O[C@H](CO)[C@@H](O)[C@H](O)[C@H]3O)cc2)N1c1ccc(F)cc1` [Compound 14], the melting point lay in the range of 61 to 62 °C.
The compound `O=C1[C@H](CCCc2ccc(F)cc2)[C@@H](c2ccc(OC[C@@H]3O[C@H](CO)[C@@H](O)[C@H](O)[C@H]3O)cc2)N1Cc1ccccc1` [Compound 16] returned a melting point of 73 to 75 °C.
For `O=C1[C@H](CC[C@H](O)c2ccc(F)cc2)[C@@H](c2ccc(/C=C/C[C@@H]3O[C@H](CO)[C@@H](O)[C@H](O)[C@H]3O)cc2)N1c1ccc(F)cc1` [Compound 47] the value was 72 to 74 °C; for `CC(=O)OC[C@H]1O[C@@H](Cc2ccc([C@@H]3[C@@H](CCCc4ccc(F)cc4)C(=O)N3c3ccccc3)cc2)[C@H](OC(C)=O)[C@@H](OC(C)=O)[C@@H]1OC(C)=O` [Compound 10], 60 to 61 °C.
`O=C1[C@H](CC[C@H](O)c2ccc(F)cc2)[C@@H](c2ccc(F)cc2)N1c1ccc(C[C@@H]2O[C@H](CO)[C@@H](O)[C@H](O)[C@H]2O)cc1` [Compound 38] displayed a melting point of 200 to 201 °C.
The figure for `COc1ccc(N2C(=O)[C@H](CCCc3ccc(F)cc3)[C@H]2c2ccc(C[C@@H]3O[C@H](CO)[C@@H](O)[C@H](O)[C@H]3O)cc2)cc1` [Compound 5] is 73 to 75 °C; for `Cc1ccc(N2C(=O)[C@H](CC[C@H](O)c3ccc(F)cc3)[C@H]2c2ccc([C@@H]3O[C@H](CO)[C@@H](O)[C@H](O)[C@H]3O)cc2)cc1` [Compound 36] it is 79 to 81 °C; for `O=C1[C@H](CC[C@H](O)c2ccc(F)cc2)[C@@H](c2ccc(CCC[C@@H]3O[C@H](CO)[C@@H](O)[C@H](O)[C@H]3O)cc2)N1c1ccc(F)cc1` [Compound 48] it is 81 to 83 °C.
The compound `O=C1[C@H](CCCc2ccc(F)cc2)[C@@H](c2ccc(C[C@@H]3O[C@H](CO)[C@@H](O)[C@H](O)[C@H]3O)cc2)N1c1ccc(Cl)cc1` [Compound 4] displayed a melting point of 76 to 78 °C.
`O=C(O)[C@H]1O[C@@H](Cc2ccc([C@@H]3[C@@H](CC[C@H](O)c4ccc(F)cc4)C(=O)N3c3ccc(F)cc3)cc2)[C@H](O)[C@@H](O)[C@@H]1O` [Compound 33]: the melting point was 82 to 84 °C.
With `O=C1[C@H](CC[C@H](O)c2ccc(F)cc2)[C@@H](c2ccc(C[C@@H]3O[C@H](CO)[C@@H](O)[C@H](O)[C@H]3O)cc2)N1c1ccccc1` [Compound 23], the melting point is 104 to 106 °C.
`O=C1[C@H](CC[C@H](O)c2ccc(F)cc2)[C@@H](c2ccc(/C=C/CC[C@@H]3O[C@H](CO)[C@@H](O)[C@H](O)[C@H]3O)cc2)N1c1ccc(F)cc1` [Compound 52] showed a melting point of 79 to 81 °C.
The figure for `O=C1[C@H](CC[C@H](O)c2ccc(F)cc2)[C@@H](c2ccc([C@@H]3O[C@H](CO)[C@@H](O)[C@H](O)[C@H]3O)cc2)N1c1ccc(F)cc1` [Compound 35] is 81 to 83 °C.
Compound `O=C(O)c1ccc(N2C(=O)[C@H](CCC(=O)c3ccc(F)cc3)[C@H]2c2ccc(C[C@@H]3O[C@H](CO)[C@@H](O)[C@H](O)[C@H]3O)cc2)cc1` [Compound 30] yielded a melting point of 102 to 104 °C.
The figure for `O=C1[C@H](CCCc2ccc(F)cc2)[C@@H](c2ccc(C[C@@H]3O[C@H](CO)[C@@H](O)[C@H](O)[C@H]3O)cc2)N1c1ccc(F)cc1` [Compound 2] is 110 to 112 °C.
For `O=C1[C@H](CC[C@H](O)c2ccc(F)cc2)[C@@H](c2ccc(CCCC[C@@H]3O[C@H](CO)[C@@H](O)[C@H](O)[C@H]3O)cc2)N1c1ccc(F)cc1` [Compound 53], the melting point lay within 81 to 83 °C.
Consider `O=C1[C@H](CC[C@H](O)c2ccc(F)cc2)[C@@H](c2ccc(CCCOC[C@@H]3O[C@H](CO)[C@@H](O)[C@H](O)[C@H]3O)cc2)N1c1ccc(F)cc1` [Compound 50], for which the melting point is 61 to 63 °C.
In turn, `O=C(O)c1ccc(N2C(=O)[C@H](CCCc3ccc(F)cc3)[C@H]2c2ccc(C[C@@H]3O[C@H](CO)[C@@H](O)[C@H](O)[C@H]3O)cc2)cc1` [Compound 31] registered a melting point of 97 to 99 °C.
`O=C(CC[C@H]1C(=O)N(c2ccc(F)cc2)[C@@H]1c1ccc(C[C@@H]2O[C@H](CO)[C@@H](O)[C@H](O)[C@H]2O)cc1)c1ccc(F)cc1` [Compound 26] showed a melting point of 78 to 80 °C.
The figure for `CCOC(=O)c1ccc(N2C(=O)[C@H](CC[C@H](O)c3ccc(F)cc3)[C@H]2c2ccc(C[C@@H]3O[C@H](CO)[C@@H](O)[C@H](O)[C@H]3O)cc2)cc1` [Compound 42] is 56 to 58 °C; for `O=C1[C@H](CC[C@H](O)c2ccc(F)cc2)[C@@H](c2ccc(CC[C@@H]3O[C@H](CO)[C@@H](O)[C@H](O)[C@H]3O)cc2)N1c1ccc(F)cc1` [Compound 46] it is 153 to 155 °C.
For `O=C1[C@H](CCCc2ccccc2)[C@@H](c2ccc(C[C@@H]3O[C@H](CO)[C@@H](O)[C@H](O)[C@H]3O)cc2)N1c1ccc(F)cc1` [Compound 11] the value was 74 to 75 °C; for `O=C(CC[C@H]1C(=O)N(c2ccccc2)[C@@H]1c1ccc(C[C@@H]2O[C@H](CO)[C@@H](O)[C@H](O)[C@H]2O)cc1)c1ccc(F)cc1` [Compound 27], 104 to 106 °C.
Take `O=C1[C@H](CC[C@H](O)c2ccc(F)cc2)[C@@H](c2ccc(CCCCC[C@@H]3O[C@H](CO)[C@@H](O)[C@H](O)[C@H]3O)cc2)N1c1ccc(F)cc1` [Compound 55]: the melting point lay within 66 to 68 °C.
The figure for `Cc1ccc(N2C(=O)[C@H](CCOc3ccc(F)cc3)[C@H]2c2ccc(C[C@@H]3O[C@H](CO)[C@@H](O)[C@H](O)[C@H]3O)cc2)cc1` [Compound 43] is 96 to 98 °C.
In turn, `CCOC(=O)C(C)(C)Oc1ccc(N2C(=O)[C@H](CCCc3ccc(F)cc3)[C@H]2c2ccc(C[C@@H]3O[C@H](CO)[C@@H](O)[C@H](O)[C@H]3O)cc2)cc1` [Compound 18] registered a melting point of 73 to 74 °C.
